US9951028B2, “Agricultural chemicals” (REDAG CROP PROTECTION LTD, priority 2013, dated 2018)

Columns and labels:
[1] = tested on: common chickweed, Stellaria media; experiment: Herbicidal efficacy screen, potter tower spray, necrosis assessed; format: in vivo
Procedure: (§1) Compounds 22, 23 and 24 were screened for herbicidal efficacy against target plants: garden cress, Lepidium sativum, common chickweed, Stellaria media, and white mustard […] alba Plants were obtained as seeds and were grown to the 2-4 true leaf stage. Plants were grown under laboratory conditions, individually in seed trays. Each plant (in an approximately 3 cm diameter plug) was then detached from the tray for spraying. The compounds were screened at a range of five concentrations, diluted in acetone and TweenTM. A carrier only control was also conducted. Treatments were applied directly onto the plants, using a potter tower, at a specified application rate. One plant of each species was sprayed using a potter tower. The 3 different types of plants were placed on a 10 cm diameter platform directly beneath the potter sprayer and sprayed simultaneously. The growth of the plants and any Phytotoxicity effects were then assessed at intervals over 21 days, according to EPPO guideline PP1/135. Five replicas were performed for each treatment, for each species. In the tables below C represents a percentage increase in necrosis relative to the control of 0.1-50; B represents a percentage inhibition of 50-80; and A represents a percentage inhibition of 80-100.

[2] = tested on: garden cress, Lepidium sativum; experiment: as above; format: in vivo
Procedure: as §1

[3] = 12.5 g/ha, day 1 post application
[4] = 12.5 g/ha, day 2 post application
[5] = 12.5 g/ha, day 3 post application
[6] = 12.5 g/ha, day 4 post application
[7] = 12.5 g/ha, day 5 post application
[8] = 12.5 g/ha, day 7 post application
[9] = 12.5 g/ha, day 10 post application
[10] = 25 g/ha, day 1 post application
[11] = 25 g/ha, day 2 post application
[12] = 25 g/ha, day 3 post application
[13] = 25 g/ha, day 4 post application
[14] = 25 g/ha, day 5 post application
[15] = 25 g/ha, day 7 post application
[16] = 25 g/ha, day 10 post application
[17] = 50 g/ha, day 1 post application
[18] = 50 g/ha, day 2 post application
[19] = 50 g/ha, day 3 post application
[20] = 50 g/ha, day 4 post application
[21] = 50 g/ha, day 5 post application
[22] = 50 g/ha, day 7 post application
[23] = 50 g/ha, day 10 post application
[24] = 100 g/ha, day 1 post application
[25] = 100 g/ha, day 2 post application
[26] = 100 g/ha, day 3 post application
[27] = 100 g/ha, day 4 post application
[28] = 100 g/ha, day 5 post application
[29] = 100 g/ha, day 7 post application
[30] = 100 g/ha, day 10 post application
[31] = 200 g/ha, day 1 post application
[32] = 200 g/ha, day 2 post application
[33] = 200 g/ha, day 3 post application
[34] = 200 g/ha, day 4 post application

CC(C)C(C)S(=O)(=O)NCc1cc(-n2c(=O)cc(C(F)(F)F)n(C)c2=O)c(F)cc1Cl (stereo not shown) [Compound 24, N-[[2-Chloro-4-fluoro-5-[3-methyl-2,6-dioxo-4-(trifluoromethyl)pyrimidin-1-yl]phenyl]methyl]-3-methyl-butane-2-sulfonamide]
Average of necrosis [1, 3]: C (C represents a percentage increase in necrosis relative to the control of 0.1-50) | Average of necrosis [1, 4]: C (C represents a percentage increase in necrosis relative to the control of 0.1-50) | Average of necrosis [1, 5]: C (C represents a percentage increase in necrosis relative to the control of 0.1-50) | Average of necrosis [1, 6]: C (C represents a percentage increase in necrosis relative to the control of 0.1-50) | Average of necrosis [1, 7]: C (C represents a percentage increase in necrosis relative to the control of 0.1-50) | Average of necrosis [1, 8]: C (C represents a percentage increase in necrosis relative to the control of 0.1-50) | Average of necrosis [1, 9]: C (C represents a percentage increase in necrosis relative to the control of 0.1-50) | Average of necrosis [1, 10]: C (C represents a percentage increase in necrosis relative to the control of 0.1-50) | Average of necrosis [1, 11]: C (C represents a percentage increase in necrosis relative to the control of 0.1-50) | Average of necrosis [1, 12]: C (C represents a percentage increase in necrosis relative to the control of 0.1-50) | Average of necrosis [1, 13]: C (C represents a percentage increase in necrosis relative to the control of 0.1-50) | Average of necrosis [1, 14]: C (C represents a percentage increase in necrosis relative to the control of 0.1-50) | Average of necrosis [1, 15]: C (C represents a percentage increase in necrosis relative to the control of 0.1-50) | Average of necrosis [1, 16]: C (C represents a percentage increase in necrosis relative to the control of 0.1-50) | Average of necrosis [1, 17]: C (C represents a percentage increase in necrosis relative to the control of 0.1-50) | Average of necrosis [1, 18]: C (C represents a percentage increase in necrosis relative to the control of 0.1-50) | Average of necrosis [1, 19]: C (C represents a percentage increase in necrosis relative to the control of 0.1-50) | Average of necrosis [1, 20]: C (C represents a percentage increase in necrosis relative to the control of 0.1-50) | Average of necrosis [1, 21]: A (A represents a percentage inhibition of 80-100) | Average of necrosis [1, 22]: A (A represents a percentage inhibition of 80-100) | Average of necrosis [1, 23]: A (A represents a percentage inhibition of 80-100) | Average of necrosis [1, 24]: C (C represents a percentage increase in necrosis relative to the control of 0.1-50) | Average of necrosis [1, 25]: C (C represents a percentage increase in necrosis relative to the control of 0.1-50) | Average of necrosis [1, 26]: C (C represents a percentage increase in necrosis relative to the control of 0.1-50) | Average of necrosis [1, 27]: B (B represents a percentage inhibition of 50-80) | Average of necrosis [1, 28]: B (B represents a percentage inhibition of 50-80) | Average of necrosis [1, 29]: B (B represents a percentage inhibition of 50-80) | Average of necrosis [1, 30]: A (A represents a percentage inhibition of 80-100) | Average of necrosis [1, 31]: C (C represents a percentage increase in necrosis relative to the control of 0.1-50) | Average of necrosis [1, 32]: C (C represents a percentage increase in necrosis relative to the control of 0.1-50) | Average of necrosis [1, 33]: C (C represents a percentage increase in necrosis relative to the control of 0.1-50) | Average of necrosis [1, 34]: C (C represents a percentage increase in necrosis relative to the control of 0.1-50) | Average of necrosis ([1]; 200 g/ha, day 5 post application): A (A represents a percentage inhibition of 80-100) | Average of necrosis ([1]; 200 g/ha, day 7 post application): A (A represents a percentage inhibition of 80-100) | Average of necrosis ([1]; 200 g/ha, day 10 post application): A (A represents a percentage inhibition of 80-100) | Average of necrosis [2, 3]: C (C represents a percentage increase in necrosis relative to the control of 0.1-50) | Average of necrosis [2, 4]: C (C represents a percentage increase in necrosis relative to the control of 0.1-50) | Average of necrosis [2, 5]: C (C represents a percentage increase in necrosis relative to the control of 0.1-50) | Average of necrosis [2, 6]: C (C represents a percentage increase in necrosis relative to the control of 0.1-50) | Average of necrosis [2, 7]: C (C represents a percentage increase in necrosis relative to the control of 0.1-50) | Average of necrosis [2, 8]: C (C represents a percentage increase in necrosis relative to the control of 0.1-50) | Average of necrosis [2, 9]: B (B represents a percentage inhibition of 50-80) | Average of necrosis [2, 10]: C (C represents a percentage increase in necrosis relative to the control of 0.1-50) | Average of necrosis [2, 11]: C (C represents a percentage increase in necrosis relative to the control of 0.1-50) | Average of necrosis [2, 12]: C (C represents a percentage increase in necrosis relative to the control of 0.1-50) | Average of necrosis [2, 13]: C (C represents a percentage increase in necrosis relative to the control of 0.1-50) | Average of necrosis [2, 14]: C (C represents a percentage increase in necrosis relative to the control of 0.1-50) | Average of necrosis [2, 15]: C (C represents a percentage increase in necrosis relative to the control of 0.1-50) | Average of necrosis [2, 16]: C (C represents a percentage increase in necrosis relative to the control of 0.1-50) | Average of necrosis [2, 17]: C (C represents a percentage increase in necrosis relative to the control of 0.1-50) | Average of necrosis [2, 18]: C (C represents a percentage increase in necrosis relative to the control of 0.1-50) | Average of necrosis [2, 19]: B (B represents a percentage inhibition of 50-80) | Average of necrosis [2, 20]: B (B represents a percentage inhibition of 50-80) | Average of necrosis [2, 21]: B (B represents a percentage inhibition of 50-80) | Average of necrosis [2, 22]: A (A represents a percentage inhibition of 80-100) | Average of necrosis [2, 23]: A (A represents a percentage inhibition of 80-100) | Average of necrosis [2, 24]: C (C represents a percentage increase in necrosis relative to the control of 0.1-50) | Average of necrosis [2, 25]: C (C represents a percentage increase in necrosis relative to the control of 0.1-50) | Average of necrosis [2, 26]: C (C represents a percentage increase in necrosis relative to the control of 0.1-50) | Average of necrosis [2, 27]: B (B represents a percentage inhibition of 50-80) | Average of necrosis [2, 28]: B (B represents a percentage inhibition of 50-80) | Average of necrosis [2, 29]: B (B represents a percentage inhibition of 50-80) | Average of necrosis [2, 30]: B (B represents a percentage inhibition of 50-80) | Average of necrosis [2, 31]: C (C represents a percentage increase in necrosis relative to the control of 0.1-50) | Average of necrosis [2, 32]: C (C represents a percentage increase in necrosis relative to the control of 0.1-50) | Average of necrosis [2, 33]: C (C represents a percentage increase in necrosis relative to the control of 0.1-50) | Average of necrosis [2, 34]: C (C represents a percentage increase in necrosis relative to the control of 0.1-50)
